Test system: LAPC9-AI prostate tumor xenografts
Assay: Established LAPC9-AI prostate tumor xenografts in tibiae, monotherapy and combination with Carboplatin
Type: in vivo, SCID mice
Settings: day 33; MAb 2 mg loading then 1.0 mg i.p. two times a week, 7 doses; Carboplatin 40 mg/kg i.v. days 7, 11, 15, 19, 22, 26; vs control antibody
Procedure: FIG. 16. […] The tumors were allowed to establish for 7 days, at which time the animals were randomized and assigned to four different groups (n=10 in each group) as indicated in the graph. […] Carboplatin (40 mg/kg) was administered to the mice intravenously (i.v.) on days 7, 11, 15, 19, 22 and 26. On day 33 all mice were sacrificed and the tumors were excised and weighed on an electronic balance.
The tumors were allowed to establish for 7 days, at which time the animals were randomized and assigned to four different groups (n=10 in each group). […] Carboplatin (40 mg/kg) was administered to the mice intravenously (i.v.) on days 7, 11, 15, 19, 22 and 26. On day 33 all mice were sacrificed and the tumors were excised and weighed on an electronic balance.

N.N.O=C([O-])C1(C(=O)[O-])CCC1.[Pt+2] [Carboplatin, reference compound]
inhibition of tumor growth (tumor weight): 87%
